ChEMBL document CHEMBL1141167, “Antitumor activity of new substituted 3-(5-imidazo[2,1-b]thiazolylmethylene)-2-indolinones and study of their effect on the cell cycle” (2005)
Where “and” joins values, the source holds several entries; their conditions need not be identical. Identical values can stand only once.

Columns and labels:
[1] = test system: CNS cell; experiment: Growth inhibitory concentration dissolved in DMSO against human CNS cell line at 10E-4 M concentration; format: functional
[2] = test system: NSCLC; experiment: Growth inhibitory concentration dissolved in DMSO against human NSCLC cell line at 10E-4 M concentration; format: functional; parameters: unit not given here
[3] = test system: Renal cell; experiment: Growth inhibitory concentration dissolved in DMSO against human Renal cell line at 10E-4 M concentration; format: functional; parameters: unit not given here
[4] = test system: Ovarian carcinoma cell; experiment: Growth inhibitory concentration dissolved in DMSO against human Ovarian cell line at 10E-4 M concentration; format: functional
[5] = test system: Breast carcinoma cell; experiment: Growth inhibitory concentration dissolved in DMSO against human Breast cell line at 10E-4 M concentration; format: functional
[6] = test system: Prostate cell; experiment: Growth inhibitory concentration dissolved in DMSO against human Prostate cell line at 10E-4 M concentration; format: functional
[7] = test system: Colon cell; experiment: Growth inhibitory concentration dissolved in DMSO against human Colon cell line at 10E-4 M concentration; format: functional
[8] = test system: Panel NCI-60 (60 carcinoma cell lines); experiment: Growth inhibitory concentration dissolved in DMSO against human MG-MID cell line at 10E-4 M concentration; format: functional
[9] = test system: Melanoma cell; experiment: Growth inhibitory concentration dissolved in DMSO against human Melanoma cell line at 10E-4 M concentration; format: functional
[10] = test system: CNS cell; experiment: Cytotoxic effect dissolved in DMSO against CNS cell line at 10E-4 M concentration; format: functional, Homo sapiens
[11] = test system: HT-29; experiment: Percentage of Cells after administration of compound dissolved in DMSO (10e-5 M) towards colon adenocarcinoma cell line HT-29 in G2/M Phase after 24 Hours of Treatment [control = 12.8]; format: functional, Homo sapiens
[12] = test system: Breast carcinoma cell; experiment: Total growth inhibition of human Breast cell line at 10E-4 M concentration; format: functional
[13] = test system: Melanoma cell; experiment: Total growth inhibition of human Melanoma cell line at 10E-4 M concentration; format: functional
[14] = test system: HT-29; experiment: Percentage of Cells after administration of compound dissolved in DMSO (10e-7M) towards colon adenocarcinoma cell line HT-29 in G2/M Phase after 24 Hours of Treatment [control = 12.8]; format: functional, Homo sapiens
[15] = test system: Leukemia cell; experiment: Total growth inhibition of human Leukemia cell line at 10E-4 M concentration; format: functional
[16] = test system: Panel NCI-60 (60 carcinoma cell lines); experiment: Cytotoxic effect dissolved in DMSO against MG-MID cell line at 10E-4 M concentration; format: functional, Homo sapiens
[17] = test system: HT-29; experiment: Percentage of Cells after administration of compound dissolved in DMSO (10e-4 M) towards colon adenocarcinoma cell line HT-29 in G2/M Phase after 24 Hours of Treatment [control = 12.8]; format: functional, Homo sapiens
[18] = test system: NSCLC; experiment: Cytotoxic effect dissolved in DMSO against NSCLC cell line at 10E-4 M concentration; format: functional, Homo sapiens
[19] = test system: HT-29; experiment: Percentage of Cells after administration of compound dissolved in DMSO (10e-6 M) towards colon adenocarcinoma cell line HT-29 in G2/M Phase after 24 Hours of Treatment [control = 12.8]; format: functional, Homo sapiens
[20] = test system: Panel NCI-60 (60 carcinoma cell lines); experiment: Total growth inhibition of human MG-MID cell line at 10E-4 M concentration; format: functional
[21] = test system: Colon cell; experiment: Total growth inhibition of human Colon cell line at 10E-4 M concentration; format: functional; parameters: unit not given here
[22] = test system: Colon cell; experiment: Cytotoxic effect dissolved in DMSO against Colon cell line at 10E-4 M concentration; format: functional, Homo sapiens
[23] = test system: NSCLC; experiment: Total growth inhibition of human NSCLC cell line at 10E-4 M concentration; format: functional
[24] = test system: Leukemia cell; experiment: Cytotoxic effect dissolved in DMSO against Leukemia cell line at 10E-4 M concentration; format: functional, Homo sapiens
[25] = test system: Prostate cell; experiment: Total growth inhibition of human Prostate cell line at 10E-4 M concentration; format: functional
[26] = test system: Ovarian carcinoma cell; experiment: Total growth inhibition of human Ovarian cell line at 10E-4 M concentration; format: functional
[27] = test system: HT-29; experiment: Percentage of Cells after administration of compound dissolved in DMSO (10e-8 M) towards colon adenocarcinoma cell line HT-29 in G2/M Phase after 24 Hours of Treatment [control = 12.8]; format: functional, Homo sapiens
[28] = test system: Melanoma cell; experiment: Cytotoxic effect dissolved in DMSO against Melanoma cell line at 10E-4 M concentration; format: functional, Homo sapiens
[29] = test system: Breast carcinoma cell; experiment: Cytotoxic effect dissolved in DMSO against Breast cell line at 10E-4 M concentration; format: functional, Homo sapiens
[30] = test system: Ovarian carcinoma cell; experiment: Cytotoxic effect dissolved in DMSO against Ovarian cell line at 10E-4 M concentration; format: functional, Homo sapiens

Structure (SMILES)	pGI50 (-log GI50, M) [1]	GI50 [2]	GI50 [3]	pGI50 (negative log of GI50 in M) [4]	pGI50 (-log GI50, M) [5]	pGI50 (negative log molar GI50) [6]	pGI50 (negative log of molar GI50) [7]	GI50 [8]	pGI50 (-log molar GI50) [9]	TGI [12]	TGI [13]	LC50 [16]	TGI [20]	TGI [21]	LC50 [22]	TGI [23]	TGI [25]	TGI [26]	LC50 [28]	also measured
COc1cc2c(cc1C)NC(=O)/C2=C/c1c(C)nc2sc(C)cn12	4.08	4.24	4.09	4.12	4.33	4.23	4.21	4.22	4.22											
Cc1cn2c(/C=C3/C(=O)Nc4ccc(O)cc43)c(C)nc2s1	5.41	5.4	5.3	5.16	5.56	5.52	5.78	5.48	5.41	4.66	4.5	4.05	4.44	4.35 and 4.5	4.03	4.36	4.42	4.09	4.08	LC50 [10]: 4.02; Activity [11]: 72.7%; Activity [14]: 13.6%; TGI [15]: 5.11; Activity [17]: 75.2%; LC50 [18]: 4.02; Activity [19]: 13.4%; LC50 [24]: 4.47; Activity [27]: 12.2%
COc1ccc2c(c1)/C(=C\c1c(C)nc3sc(C)cn13)C(=O)N2C	5.46	5.11	5.32	5.16	5.6	5.06	5.49	5.35	5.26	4.87	4.45	4.03	4.46	4.55 and 4.59	4.09	4.4	4.1	4.42	4.13	LC50 [29]: 4.03; LC50 [30]: 4.02
